Results published in patent US11439980B2, “Contaminant-activated photocatalysis” (UNIVERSITY OF FLORIDA RESEARCH FOUNDATION, INC., priority 2016, dated 2022).

Tests used:
[1] = Photocatalytic degradation of Mordant Orange on coated tiles under visible light; settings: MO on anatase coating, N=4
Protocol: (§1) Photocatalytic coating formulation was prepared by adding 10 mg of anatase (A7) to 10 mL of dilute NaOH (pH=9.5) in a 20 mL scintillation vial wrapped with aluminum foil. The suspension was sonicated (Misonix Sonicator 3000, Farmingdale, NY) at the highest power level providing 180-200 W for 30 minutes total (10 min on/2 min off×3). Similarly, rutile (R22) and silica (S15) coating formulations were prepared without exposing to visible light. In case of anatase+PHF, the anatase suspension was sonicated for 30 minutes followed by addition of 1 mL of a PHF solution (1000 or 100 mg/L). The nanocomposites suspension was mixed with a magnetic stirrer for 10 minutes in dark.
(§2) Ceramic tiles were utilized to evaluate the photocatalytic degradation of organic dye and inactivation of microbes. […]
(§3) The photocatalytic experiments were carried out under fluorescent lamps (General Electric model T8 Ultramax F28T8-SPX41) at visible light irradiance of 1.8-2.0 W/m^2. […] The visible light and UVA irradiances were measured with a PMA 2140 Global detector or a PMA 2110 UVA detector attached to a PMA2110 meter (Solar Light Co., Glenside, Pa.).
(§4) The temporal changes in dye concentration were determined by measuring the absorbance after predetermined times of exposure to visible light. The inactivation of S. aureus was evaluated by determining the viable counts after exposure to visible light. […]

[2] = Photocatalytic degradation of Procion Red on coated tiles under visible light; settings: PR on anatase coating, N=4
Protocol: as §1, §2, §3, §4

Substance: Mordant Orange
- overall pseudo first order degradation rate [1]: 0.01 h⁻¹

Substance: Procion Red
- overall pseudo first order degradation rate [2]: 0.023 h⁻¹
